In patent US8148372B2 (AstraZeneca AB, priority 2008, dated 2012):
In brackets after ≈: the same amount, converted by molar mass.

Columns and labels:
[1] = Solubility in pH 7.4 phosphate buffer; assay type: physicochemical; conditions: aqueous buffer, thermodynamic from solid, equilibration 24 h at 25° C., HPLC-UV and LC-MSMS
Experimental: Solubility was determined in pH 7.4 phosphate buffer after equilibration for 24 h at 25° C. and HPLC-UV and LC-MSMS were used for quantitation.

hERG ion channel = hERG ion channel (Homo sapiens, UniProt Q12809); test: hERG activity (process of Bridgland-Taylor et al.); assay type: cell-based
Sequence of hERG ion channel (Q12809 whole entry): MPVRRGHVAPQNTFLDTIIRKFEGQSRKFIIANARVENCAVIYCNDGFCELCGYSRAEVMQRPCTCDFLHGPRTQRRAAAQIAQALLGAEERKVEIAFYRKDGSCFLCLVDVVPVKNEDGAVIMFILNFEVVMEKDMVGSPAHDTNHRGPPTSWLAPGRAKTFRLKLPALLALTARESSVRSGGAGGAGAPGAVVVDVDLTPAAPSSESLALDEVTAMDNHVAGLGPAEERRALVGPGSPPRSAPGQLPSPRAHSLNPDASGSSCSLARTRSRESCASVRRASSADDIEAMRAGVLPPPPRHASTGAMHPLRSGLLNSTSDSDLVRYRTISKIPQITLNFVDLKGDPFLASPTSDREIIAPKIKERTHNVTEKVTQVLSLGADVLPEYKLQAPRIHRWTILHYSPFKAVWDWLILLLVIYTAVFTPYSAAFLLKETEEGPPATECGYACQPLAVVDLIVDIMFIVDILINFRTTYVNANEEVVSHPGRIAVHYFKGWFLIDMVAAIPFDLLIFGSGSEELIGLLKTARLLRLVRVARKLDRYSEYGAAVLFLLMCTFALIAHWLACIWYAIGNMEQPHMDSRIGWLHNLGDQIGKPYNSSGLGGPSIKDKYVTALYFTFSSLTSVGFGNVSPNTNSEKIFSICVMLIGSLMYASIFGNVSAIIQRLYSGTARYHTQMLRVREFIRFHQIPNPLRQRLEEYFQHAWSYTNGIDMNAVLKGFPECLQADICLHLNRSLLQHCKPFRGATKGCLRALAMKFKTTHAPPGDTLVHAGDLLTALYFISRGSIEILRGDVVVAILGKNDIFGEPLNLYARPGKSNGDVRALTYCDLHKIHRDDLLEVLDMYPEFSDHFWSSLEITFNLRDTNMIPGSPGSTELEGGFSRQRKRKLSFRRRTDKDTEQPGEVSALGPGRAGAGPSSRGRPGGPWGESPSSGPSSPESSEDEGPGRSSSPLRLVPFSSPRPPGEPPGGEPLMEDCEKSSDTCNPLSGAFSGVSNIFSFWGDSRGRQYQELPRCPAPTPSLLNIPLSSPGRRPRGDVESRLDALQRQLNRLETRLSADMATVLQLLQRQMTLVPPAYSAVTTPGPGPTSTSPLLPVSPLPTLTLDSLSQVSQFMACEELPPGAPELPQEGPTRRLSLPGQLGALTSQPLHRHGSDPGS
Experimental: hERG activity was assessed using the process described by Bridgland-Taylor, M. H., et al, J. Pharm. Tox. Methods 54 (2006) 189-199.

human mGluR2 = target: T1, human mGluR2 (Homo sapiens, UniProt Q14416); test: [35S]-GTPγS binding assay, membranes from CHO cells stably expressing human mGluR2; assay type: biochemical; conditions: for Emax: 0.5 h, Emax relative to the maximum glutamate effect, 1 μM glutamate, read-out: Hu GTPgS Median Top Effect; for EC50: allosteric activator activity in presence of 1 μM glutamate, CHO membranes, human mGluR2, read-out: Hu GTPgS EC50
T1 construct: expressed in transfected cells; host or cells: CHO cells, stably transfected; membranes
T1 sequence (Q14416 19-872): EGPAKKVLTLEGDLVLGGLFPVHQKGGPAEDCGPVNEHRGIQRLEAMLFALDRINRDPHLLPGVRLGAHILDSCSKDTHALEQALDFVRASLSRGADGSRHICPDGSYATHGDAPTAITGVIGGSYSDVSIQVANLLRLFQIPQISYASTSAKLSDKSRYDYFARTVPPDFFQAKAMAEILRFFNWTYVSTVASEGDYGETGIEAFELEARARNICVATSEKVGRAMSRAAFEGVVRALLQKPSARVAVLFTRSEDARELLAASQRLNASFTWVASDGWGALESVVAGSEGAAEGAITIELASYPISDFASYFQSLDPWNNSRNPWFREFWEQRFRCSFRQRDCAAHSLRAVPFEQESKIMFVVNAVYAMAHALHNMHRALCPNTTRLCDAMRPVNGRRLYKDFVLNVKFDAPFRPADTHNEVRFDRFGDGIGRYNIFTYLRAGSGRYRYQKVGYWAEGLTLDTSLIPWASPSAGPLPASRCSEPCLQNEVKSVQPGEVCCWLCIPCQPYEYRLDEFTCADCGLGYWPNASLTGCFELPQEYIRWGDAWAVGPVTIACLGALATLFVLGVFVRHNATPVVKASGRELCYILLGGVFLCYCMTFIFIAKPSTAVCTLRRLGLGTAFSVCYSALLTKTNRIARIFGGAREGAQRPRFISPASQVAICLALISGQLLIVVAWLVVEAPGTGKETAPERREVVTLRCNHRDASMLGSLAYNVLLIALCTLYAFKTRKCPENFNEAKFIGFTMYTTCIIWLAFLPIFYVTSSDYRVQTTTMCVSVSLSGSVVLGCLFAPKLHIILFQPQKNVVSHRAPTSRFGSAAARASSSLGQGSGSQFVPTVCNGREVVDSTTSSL
Experimental: A [^35S]-GTPγS binding assay was used to functionally assay mGluR2 receptor activation. The allosteric activator activity of compounds at the human mGluR2 receptor were measured using a [^35S]-GTPγS binding assay with membranes prepared from CHO cells that stably express the human mGluR2. The assay is based upon the principle that agonists bind to G-protein coupled receptors to stimulate GDP-GTP exchange at the G-protein. Since [^35S]-GTPγS is a non-hydrolyzable GTP analog, it can be used to provide an index of GDP-GTP exchange and, thus, receptor activation. The GTPγS binding assay therefore provides a quantitative measure of receptor activation.
Membranes were prepared from CHO cells stably transfected with human mGluR2. Membranes (30 μg protein) were incubated with test compound (3 nM to 300 μM) for 15 minutes at room temperature prior to the addition of 1 μM glutamate, and incubated for 30 min at 30° C. in 500 μl assay buffer (20 mM HEPES, 100 mM NaCl, 10 mM MgCl2), containing 30 μM GDP and 0.1 nM [^35S]-GTPγS (1250 Ci/mmol). Reactions were carried out in triplicate in 2 ml polypropylene 96-well plates. Reactions were terminated by vacuum filtration using a Packard 96-well harvester and Unifilter-96, GF/B filter microplates. The filter plates were washed 4×1.5 ml with ice-cold wash buffer (10 mM sodium phosphate buffer, pH 7.4). The filter plates were dried and 35 μl of scintillation fluid (Microscint 20) was added to each well. The amount of radioactivity bound was determined by counting plates on the Packard TopCount. Data was analyzed using GraphPad Prism, and EC50 and Emax values (relative to the maximum glutamate effect) were calculated using non-linear regression.

SMILES	solubility at 24 h [1] [µM]	IC50 (hERG ion channel) [nM]	Emax (human mGluR2) [%]	EC50 (human mGluR2) [nM]	melting point [°C]
CC(C)N(C)C(=O)c1cc(-c2cc(Cl)c3c(c2)CN([C@@H](C)C2CC2)C3=O)on1 [Example 18, 5-[7-Chloro-2-((S)-1-cyclopropyl-ethyl)-1-oxo-2,3-dihydro-1H-isoindol-5-yl]-isoxazole-3-carboxylic acid isopropyl-methyl-amide]	4.65 (≈ 1.87 µg/mL)	> 33000	109	56	
Cc1cc(-c2cc(C(=O)N(C)C)no2)cc2c1C(=O)N(C(C)C)C2 [Example 5, 5-(2-Isopropyl-7-methyl-1-oxo-2,3-dihydro-1H-isoindol-5-yl)-isoxazole-3-carboxylic acid dimethylamide]	19.2 (≈ 6.29 µg/mL)	> 33000	67	425	
CNC(=O)c1cc(-c2cc(Cl)c3c(c2)CN([C@@H](C)C2CC2)C3=O)on1 [Example 2, 5-(7-chloro-2-((S)-1-cyclopropylethyl)-1-oxo-2,3-dihydro-1H-isoindolin-5-yl)-N-methylisoxazole-3-carboxamide]	6.82 (≈ 2.45 µg/mL)	21000	114	600	212.3
C[C@@H](C1CC1)N1Cc2cc(-c3cc(C(N)=O)no3)cc(Cl)c2C1=O [Example 7, 5-[7-Chloro-2-((S)-1-cyclopropyl-ethyl)-1-oxo-2,3-dihydro-1H-isoindol-5-yl]-isoxazole-3-carboxylic acid amide]	16.6 (≈ 5.74 µg/mL)	> 33000	139	230	
Cc1cc(-c2cc(C(N)=O)no2)cc2c1C(=O)N([C@@H](C)C1CC1)C2 [Example 4, 5-[2-((S)-1-Cyclopropyl-ethyl)-7-methyl-1-oxo-2,3-dihydro-1H-isoindol-5-yl]-isoxazole-3-carboxylic acid amide]	9.53 (≈ 3.1 µg/mL)	> 33000	130	150	
CC(C)N1Cc2cc(-c3cc(C(=O)NC4CCCC4)no3)cc(Cl)c2C1=O [Example 14, 5-(7-Chloro-2-isopropyl-1-oxo-2,3-dihydro-1H-isoindol-5-yl)-isoxazole-3-carboxylic acid cyclopentylamide]	3.53 (≈ 1.37 µg/mL)	19000	97	60	
CC(C)N1Cc2cc(-c3cc(C(=O)N4CCOCC4)no3)cc(Cl)c2C1=O [Example 15, 7-Chloro-2-isopropyl-5-[3-(morpholine-4-carbonyl)-isoxazol-5-yl]-2,3-dihydro-isoindol-1-one]	66.3 (≈ 25.8 µg/mL)	> 33000	100	530	
CNC(=O)c1cc(-c2cc(C)c3c(c2)CN([C@@H](C)C2CC2)C3=O)on1 [Example 6, 5-[2-((S)-1-Cyclopropyl-ethyl)-7-methyl-1-oxo-2,3-dihydro-1H-isoindol-5-yl]-isoxazole-3-carboxylic acid methylamide]	17.5 (≈ 5.94 µg/mL)	23000	110	510	
C[C@H](N1Cc2cc(-c3cc(C(=O)N4CCOCC4)no3)cc(Cl)c2C1=O)C(F)(F)F [Example 21, 7-Chloro-5-[3-(morpholine-4-carbonyl)-isoxazol-5-yl]-2-((S)-2,2,2-trifluoro-1-methyl-ethyl)-2,3-dihydro-isoindol-1-one]	9.32 (≈ 4.14 µg/mL)	> 33000	106	514	
C[C@@H](C1CC1)N1Cc2cc(-c3cc(C(=O)N(C)CCO)no3)cc(Cl)c2C1=O [Example 19, 5-[7-Chloro-2-((S)-1-cyclopropyl-ethyl)-1-oxo-2,3-dihydro-1H-isoindol-5-yl]-isoxazole-3-carboxylic acid (2-hydroxy-ethyl)-methyl-amide]	273 (≈ 110 µg/mL)	> 33000	141	443	
Cc1cc(-c2cc(C(=O)N3CCNCC3)no2)cc2c1C(=O)N([C@@H](C)C1CC1)C2 [Example 16, 2-((S)-1-Cyclopropyl-ethyl)-7-methyl-5-[3-(piperazine-1-carbonyl)-isoxazol-5-yl]-2,3-dihydro-isoindol-1-one]	435 (≈ 172 µg/mL)	> 33000	79	664	
CC(C)N1Cc2cc(-c3cc(C(=O)N4CCCC4)no3)cc(Cl)c2C1=O [Example 9, 7-Chloro-2-isopropyl-5-[3-(pyrrolidine-1-carbonyl)-isoxazol-5-yl]-2,3-dihydro-isoindol-1-one]	3.57 (≈ 1.33 µg/mL)	> 33000	101	37	
Cc1cc(-c2cc(C(=O)N(C)CCO)no2)cc2c1C(=O)N([C@@H](C)C1CC1)C2 [Example 13, 5-[2-((S)-1-Cyclopropyl-ethyl)-7-methyl-1-oxo-2,3-dihydro-1H-isoindol-5-yl]-isoxazole-3-carboxylic acid (2-hydroxy-ethyl)-methyl-amide]	153 (≈ 58.7 µg/mL)	> 33000	78	479	
C[C@@H](C1CC1)N1Cc2cc(-c3cc(C(=O)N(C)C)no3)cc(Cl)c2C1=O [Example 1, 5-(7-chloro-2-((S)-1-cyclopropylethyl)-1-oxo-2,3-dihydro-1H-isoindolin-5-yl)-N,N-dimethylisoxazole-3-carboxamide]	33.4 (≈ 12.5 µg/mL)	> 33000	127	64	143.5
C[C@H](N1Cc2cc(-c3cc(C(=O)N(C)C)no3)cc(Cl)c2C1=O)C(F)(F)F [Example 17, 5-[7-Chloro-1-oxo-2-((S)-2,2,2-trifluoro-1-methyl-ethyl)-2,3-dihydro-1H-isoindol-5-yl]-isoxazole-3-carboxylic acid dimethylamide]	15.5 (≈ 6.23 µg/mL)	> 33000	139	84	
CC(C)N1Cc2cc(-c3cc(C(N)=O)no3)cc(Cl)c2C1=O [Example 3]	21.4 (≈ 6.84 µg/mL)	> 33000	117	214	
C[C@@H](C1CC1)N1Cc2cc(-c3cc(C(=O)N4CCOCC4)no3)cc(Cl)c2C1=O [Example 20, 7-Chloro-2-((S)-1-cyclopropyl-ethyl)-5-[3-(morpholine-4-carbonyl)-isoxazol-5-yl]-2,3-dihydro-isoindol-1-one]	5.74 (≈ 2.39 µg/mL)	> 33000	122	85	
CC(C)N1Cc2cc(-c3cc(C(=O)N(C)CCO)no3)cc(Cl)c2C1=O [Example 10, 5-(7-Chloro-2-isopropyl-1-oxo-2,3-dihydro-1H-isoindol-5-yl)-isoxazole-3-carboxylic acid (2-hydroxy-ethyl)-methyl-amide]	54.1 (≈ 20.4 µg/mL)	> 33000	103	618	
Cc1cc(-c2cc(C(=O)N(C)C)no2)cc2c1C(=O)N([C@@H](C)C(F)(F)F)C2 [Example 11, 5-[7-M ethyl-1-oxo-2-((S)-2,2,2-trifluoro-1-methyl-ethyl)-2,3-dihydro-1H-isoindol-5-yl]-isoxazole-3-carboxylic acid dimethylamide]	4.35 (≈ 1.66 µg/mL)	> 33000	114	66	
Cc1cc(-c2cc(C(=O)N(C)C)no2)cc2c1C(=O)N([C@@H](C)C1CC1)C2 [Example 8, 5-[2-((S)-1-Cyclopropyl-ethyl)-7-methyl-1-oxo-2,3-dihydro-1H-isoindol-5-yl]-isoxazole-3-carboxylic acid dimethylamide]	31.1 (≈ 11 µg/mL)	> 33000	123	115	
Cc1cc(-c2cc(C(=O)N(C)C(C)C)no2)cc2c1C(=O)N([C@@H](C)C1CC1)C2 [Example 12, 5-[2-((S)-1-Cyclopropyl-ethyl)-7-methyl-1-oxo-2,3-dihydro-1H-isoindol-5-yl]-isoxazole-3-carboxylic acid isopropyl-methyl-amide]	11.2 (≈ 4.27 µg/mL)	> 33000	100	36	
